Results reported in PubChem BioAssay AID2060908 (Molecular Pharmacology Branch, DTP, NCI, 2025).
Each block holds one compound with its values, some of them ahead of it.

System: 186277-243-T-J2-PDC complex spheroids, viability
Assay: Anticancer human tumor 186277-243-T-J2-PDC patient-derived colon adenocarcinoma cell line growth inhibition [RAS]
Settings: for IC50: curve of first compound; for viability, T/C: stronger effect = lower value
Procedure, shortened: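 Multi-cell-type spheroids: tumor cells plus HUVEC endothelial cells and mesenchymal stem cells. RAS-pathway inhibitors were combined with targeted agents, each dosed in half-log steps down from clinical Cmax, or from 10 microM when Cmax was unknown.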

[1] = second compound 0.000949 µM, first compound 0.0316 µM
[2] = second compound 0.000949 µM, first compound 0.1 µM
[3] = second compound 0.000949 µM, first compound 0.316 µM
[4] = second compound 0.000949 µM, first compound 1 µM
[5] = second compound 0.003 µM, first compound 0.0316 µM
[6] = second compound 0.003 µM, first compound 0.1 µM
[7] = second compound 0.003 µM, first compound 0.316 µM
[8] = second compound 0.003 µM, first compound 1 µM
[9] = second compound 0.00949 µM, first compound 0.0316 µM
[10] = second compound 0.00949 µM, first compound 0.1 µM
[11] = second compound 0.00949 µM, first compound 0.316 µM
[12] = second compound 0.00949 µM, first compound 1 µM
[13] = second compound 0.03 µM, first compound 0.0316 µM
[14] = second compound 0.03 µM, first compound 0.1 µM
[15] = second compound 0.03 µM, first compound 0.316 µM
[16] = second compound 0.03 µM, first compound 1 µM
[17] = second compound 0.0949 µM, first compound 0.0316 µM
[18] = second compound 0.0949 µM, first compound 0.1 µM
[19] = second compound 0.0949 µM, first compound 0.316 µM
[20] = second compound 0.0949 µM, first compound 1 µM
[21] = second compound 0.3 µM, first compound 0.0316 µM
[22] = second compound 0.3 µM, first compound 0.1 µM
[23] = second compound 0.3 µM, first compound 0.316 µM
[24] = second compound 0.3 µM, first compound 1 µM
[25] = second compound 0.000949 µM, first compound 3.16 µM
[26] = second compound 0.000949 µM, first compound 10 µM
[27] = second compound 0.003 µM, first compound 3.16 µM
[28] = second compound 0.003 µM, first compound 10 µM
[29] = second compound 0.00949 µM, first compound 3.16 µM
[30] = second compound 0.00949 µM, first compound 10 µM
[31] = second compound 0.03 µM, first compound 3.16 µM
[32] = second compound 0.03 µM, first compound 10 µM
[33] = second compound 0.0949 µM, first compound 3.16 µM
[34] = second compound 0.0949 µM, first compound 10 µM
[35] = second compound 0.3 µM, first compound 3.16 µM
[36] = second compound 0.3 µM, first compound 10 µM
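Further: spheroids exposed to compounds for 7 days before viability read.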

- IC50 (second compound 0.000949 µM): > 1000 nM
- IC50 (second compound 0.003 µM): 357 nM
- IC50 (second compound 0.00949 µM): 3.65 nM
- IC50 (second compound 0.03 µM): < 3.16 nM
- IC50 (second compound 0.0949 µM): < 3.16 nM
- IC50 (second compound 0.3 µM): < 3.16 nM
Compound: CCN1CCN(Cc2ccc(Nc3ncc(F)c(-c4cc(F)c5nc(C)n(C(C)C)c5c4)n3)nc2)CC1 + CCn1c(-c2cc(N3CCN(C)CC3)cnc2C(C)OC)c2c3cc(ccc31)-c1csc(n1)CC(NC(=O)C1CC1C)C(=O)N1CCCC(N1)C(=O)OCC(C)(C)C2
- viability, T/C (second compound 0.000949 µM, first compound 0.00316 µM): 102%
- viability, T/C (second compound 0.000949 µM, first compound 0.01 µM): 121%
- viability, T/C [1]: 140%
- viability, T/C [2]: 149%
- viability, T/C [3]: 121%
- viability, T/C [4]: 76.6%
- viability, T/C (second compound 0.003 µM, first compound 0.00316 µM): 105%
- viability, T/C (second compound 0.003 µM, first compound 0.01 µM): 111%
- viability, T/C [5]: 107%
- viability, T/C [6]: 86.1%
- viability, T/C [7]: 53%
- viability, T/C [8]: 32%
- viability, T/C (second compound 0.00949 µM, first compound 0.00316 µM): 50.8%
- viability, T/C (second compound 0.00949 µM, first compound 0.01 µM): 43.8%
- viability, T/C [9]: 32.7%
- viability, T/C [10]: 22.1%
- viability, T/C [11]: 16.8%
- viability, T/C [12]: 12.3%
- viability, T/C (second compound 0.03 µM, first compound 0.00316 µM): 14.5%
- viability, T/C (second compound 0.03 µM, first compound 0.01 µM): 13.7%
- viability, T/C [13]: 11.9%
- viability, T/C [14]: 9.88%
- viability, T/C [15]: 9.46%
- viability, T/C [16]: 8.2%
- viability, T/C (second compound 0.0949 µM, first compound 0.00316 µM): 7.73%
- viability, T/C (second compound 0.0949 µM, first compound 0.01 µM): 7.37%
- viability, T/C [17]: 6.72%
- viability, T/C [18]: 6.74%
- viability, T/C [19]: 7.64%
- viability, T/C [20]: 7%
- viability, T/C (second compound 0.3 µM, first compound 0.00316 µM): 6.2%
- viability, T/C (second compound 0.3 µM, first compound 0.01 µM): 5.86%
- viability, T/C [21]: 6.14%
- viability, T/C [22]: 6.13%
- viability, T/C [23]: 6.52%
- viability, T/C [24]: 6.25%

- IC50 (second compound 0.000949 µM): 616 nM
- IC50 (second compound 0.003 µM): 128 nM
- IC50 (second compound 0.00949 µM): < 31.6 nM
- IC50 (second compound 0.03 µM): < 31.6 nM
- IC50 (second compound 0.0949 µM): < 31.6 nM
- IC50 (second compound 0.3 µM): < 31.6 nM
Compound: Cc1nc(N2CCC3(CC2)COC(C)C3N)c(CO)nc1Sc1ccnc(N)c1Cl (stereo unspecified) + CCn1c(-c2cc(N3CCN(C)CC3)cnc2C(C)OC)c2c3cc(ccc31)-c1csc(n1)CC(NC(=O)C1CC1C)C(=O)N1CCCC(N1)C(=O)OCC(C)(C)C2
- viability, T/C [1]: 94.6%
- viability, T/C [2]: 110%
- viability, T/C [3]: 76.3%
- viability, T/C [4]: 30.1%
- viability, T/C [25]: 9.66%
- viability, T/C [26]: 5.87%
- viability, T/C [5]: 91.2%
- viability, T/C [6]: 58.7%
- viability, T/C [7]: 18.3%
- viability, T/C [8]: 8.06%
- viability, T/C [27]: 4.43%
- viability, T/C [28]: 2.87%
- viability, T/C [9]: 27.1%
- viability, T/C [10]: 13.6%
- viability, T/C [11]: 6.12%
- viability, T/C [12]: 4.02%
- viability, T/C [29]: 3.42%
- viability, T/C [30]: 2.67%
- viability, T/C [13]: 9.41%
- viability, T/C [14]: 7.94%
- viability, T/C [15]: 4.32%
- viability, T/C [16]: 3.62%
- viability, T/C [31]: 2.89%
- viability, T/C [32]: 2.28%
- viability, T/C [17]: 5.71%
- viability, T/C [18]: 4.9%
- viability, T/C [19]: 3.65%
- viability, T/C [20]: 3.26%
- viability, T/C [33]: 2.76%
- viability, T/C [34]: 1.95%
- viability, T/C [21]: 4.72%
- viability, T/C [22]: 4.35%
- viability, T/C [23]: 3.45%
- viability, T/C [24]: 3.1%
- viability, T/C [35]: 2.4%
- viability, T/C [36]: 1.92%

- IC50 (second compound 0.000949 µM): 54.2 nM
- IC50 (second compound 0.003 µM): < 31.6 nM
- IC50 (second compound 0.00949 µM): < 31.6 nM
- IC50 (second compound 0.03 µM): < 31.6 nM
- IC50 (second compound 0.0949 µM): < 31.6 nM
- IC50 (second compound 0.3 µM): < 31.6 nM
Compound: NC1c2ccccc2OC12CCN(c1cnc3c(N4CCCc5ncccc54)n[nH]c3n1)CC2 (stereo unspecified) + CCn1c(-c2cc(N3CCN(C)CC3)cnc2C(C)OC)c2c3cc(ccc31)-c1csc(n1)CC(NC(=O)C1CC1C)C(=O)N1CCCC(N1)C(=O)OCC(C)(C)C2
- viability, T/C [1]: 70.1%
- viability, T/C [2]: 26.9%
- viability, T/C [3]: 6.05%
- viability, T/C [4]: 3.49%
- viability, T/C [25]: 2.69%
- viability, T/C [26]: 2.5%
- viability, T/C [5]: 25.1%
- viability, T/C [6]: 6.27%
- viability, T/C [7]: 3.3%
- viability, T/C [8]: 2.57%
- viability, T/C [27]: 2.3%
- viability, T/C [28]: 1.8%
- viability, T/C [9]: 7.02%
- viability, T/C [10]: 3.42%
- viability, T/C [11]: 2.63%
- viability, T/C [12]: 1.94%
- viability, T/C [29]: 1.79%
- viability, T/C [30]: 1.61%
- viability, T/C [13]: 3.98%
- viability, T/C [14]: 3.86%
- viability, T/C [15]: 2.26%
- viability, T/C [16]: 1.79%
- viability, T/C [31]: 3.5%
- viability, T/C [32]: 1.52%
- viability, T/C [17]: 3.58%
- viability, T/C [18]: 2.71%
- viability, T/C [19]: 2.03%
- viability, T/C [20]: 1.94%
- viability, T/C [33]: 1.81%
- viability, T/C [34]: 1.53%
- viability, T/C [21]: 3.17%
- viability, T/C [22]: 2.52%
- viability, T/C [23]: 1.83%
- viability, T/C [24]: 1.56%
- viability, T/C [35]: 1.77%
- viability, T/C [36]: 1.56%
